Experimental data from DBAASP.
Values after ≈ are worked out from the molar mass of the structure shown. Values belong to the molecule of their own block, whether it stands above or below them.

Columns and labels:
Assay in all cases: ≥ marks a high value that may be exact or a test limit, other limits are often not marked, values filed in µg/mL are converted to µM
[1] = system: Staphylococcus epidermidis 154
[2] = system: Staphylococcus epidermidis ATCC 12228
[3] = system: Candida albicans ATCC 10231
[4] = system: Pseudomonas aeruginosa ATCC 9027
[5] = system: Escherichia coli ATCC 25922
[6] = system: Enterococcus faecalis PCM 2673
[7] = system: Staphylococcus aureus ATCC 25923
[8] = system: Staphylococcus xylosus DSM 20287
[9] = system: Bacillus subtilis DSM 347
[10] = system: Escherichia coli DSM 1116
[11] = system: Franconibacter helveticus DSM 18390
[12] = system: Staphylococcus aureus ATCC 29213
[13] = system: Salmonella enterica subsp. enterica serovar Pullorum C79-13
[14] = system: Salmonella enterica subsp. enterica serovar Typhimurium C77-31
[15] = system: Salmonella enterica subsp. enterica serovar Typhi CMCC 50071
[16] = system: Escherichia coli UB1005
[17] = system: Salmonella enterica subsp. enterica serovar Typhimurium ATCC 14028
[18] = system: Proteus vulgaris ATCC 6380
[19] = system: Shigella flexneri ATCC 203
[20] = system: Staphylococcus aureus
[21] = system: Micrococcus luteus ATCC 9341
[22] = system: Escherichia coli ATCC 2592
[23] = system: Staphylococcus aureus ATCC 6538
[24] = system: Candida albicans ATCC 36232
[25] = system: Klebsiella pneumoniae
[26] = system: Salmonella enterica subsp. enterica serovar Paratyphi A
[27] = system: Staphylococcus haemolyticus
[28] = system: Citrobacter freundii
[29] = system: Acinetobacter baumannii ATCC 17978
[30] = system: Staphylococcus aureus HNCMO 112011
[31] = system: Escherichia coli ATCC 8739
[32] = system: Enterococcus faecalis ATCC 2912
[33] = system: Staphylococcus hominis ATCC 27844
[34] = system: Pseudomonas aeruginosa ATCC 15442
[35] = system: Staphylococcus aureus NBRC 12732
[36] = system: Saccharomyces cerevisiae NBRC 10217
[37] = system: Escherichia coli NBRC 14237

Compound: CC(C)C[C@H](NC(=O)[C@H](Cc1ccc(O)cc1)NC(=O)[C@H](Cc1ccc(O)cc1)NC(=O)CNC(=O)[C@H](Cc1c[nH]c2ccccc12)NC(=O)[C@H](CO)NC(=O)[C@H](CO)NC(=O)[C@H](Cc1c[nH]c2ccccc12)NC(=O)[C@H](CC(C)C)NC(=O)[C@H](CCCCN)NC(=O)[C@@H](NC(=O)[C@@H](NC(=O)[C@H](CC(C)C)NC(=O)[C@@H](N)CC(=O)O)[C@@H](C)O)[C@@H](C)O)C(=O)NCC(=O)N[C@@H](CCCCN)C(=O)N[C@@H](CCCCN)C(=O)N[C@@H](C)C(=O)N[C@@H](CCCN=C(N)N)C(=O)N[C@@H](Cc1c[nH]c2ccccc12)C(=O)N[C@@H](CC(N)=O)C(=O)N[C@@H](CC(C)C)C(=O)N[C@@H](CCCCN)C(=O)N[C@@H](Cc1cnc[nH]1)C(=O)N1CCC[C@H]1C(=O)N[C@@H](Cc1ccc(O)cc1)C(=O)N[C@H](C(=O)N[C@@H](CCC(N)=O)C(=O)N[C@@H](Cc1ccccc1)C(=O)O)C(C)C [DLTTKLWSSWGYYLGKKARWNLKHPYVQF]
MIC [1]: 25 µM (≈ 89.7 µg/mL)
MIC [2]: 12.5 µM (≈ 44.8 µg/mL)

Compound: CC[C@H](C)[C@H](NC(=O)[C@H](CCCCN)NC(=O)[C@H](CCCCN)NC(=O)[C@@H](NC(=O)[C@@H](NC(=O)[C@H](CC(=O)O)NC(=O)[C@H](Cc1ccccc1)NC(=O)[C@H](C)NC(=O)CN)[C@@H](C)CC)[C@@H](C)CC)C(=O)N[C@@H](C)C(=O)N[C@@H](CCC(=O)O)C(=O)N[C@@H](CO)C(=O)N[C@@H](Cc1ccccc1)C(N)=O [GAFDIIKKIAESF]
MIC [3]: 178 µM (≈ 256 µg/mL)
MIC [4]: 356 µM (≈ 512 µg/mL)
MIC [5]: 178 µM (≈ 256 µg/mL)
MIC [6]: ≥ 356 µM
MIC [7]: > 356 µM

Compound: CC[C@H](C)[C@H](N)C(=O)N[C@@H](C)C(=O)NCC(=O)N[C@@H](CCCCN)C(=O)N[C@H](C(=O)N[C@@H](C)C(=O)N[C@@H](CCCCN)C(=O)N[C@H](C(=O)N[C@@H](C)C(=O)NCC(=O)N[C@@H](CCCCN)C(=O)N[C@H](C(=O)N[C@@H](C)C(=O)N[C@@H](CCCCN)C(=O)N[C@H](C(=O)N[C@@H](C)C(=O)NCC(=O)N[C@@H](CCCCN)C(=O)N[C@H](C(=O)N[C@@H](C)C(N)=O)[C@@H](C)CC)[C@@H](C)CC)[C@@H](C)CC)[C@@H](C)CC)[C@@H](C)CC [IAGKIAKIAGKIAKIAGKIA]
MIC [8]: 2.07 µM (≈ 4 µg/mL)
MIC [9]: 1.46 µM (≈ 2.83 µg/mL)
MIC [10]: 4.13 µM (≈ 8 µg/mL)
MIC [11]: 2.92 µM (≈ 5.65 µg/mL)

Compound: CSCC[C@H](NC(=O)[C@H](CCCN=C(N)N)NC(=O)[C@H](Cc1c[nH]c2ccccc12)NC(=O)[C@H](CCC(N)=O)NC(=O)[C@H](Cc1c[nH]c2ccccc12)NC(=O)[C@H](CCCN=C(N)N)NC(=O)[C@H](CCCN=C(N)N)NC(=O)[C@H](CS)NC(=O)[C@@H](N)CCCCN)C(=O)N[C@@H](CCCCN)C(=O)N[C@@H](CCCCN)C(N)=O [KCRRWQWRMKK]
MIC [12]: > 128 µM
MIC [13]: ≥ 128 µM
MIC [14]: ≥ 128 µM
MIC [15]: ≥ 128 µM
MIC [16]: ≥ 128 µM
MIC [17]: > 128 µM
MIC [2]: > 128 µM
MIC [7]: 128 µM (≈ 205 µg/mL)

Compound: CC(C)[C@H](NC(=O)[C@H](CCCCN)NC(=O)[C@@H](N)CCCCN)C(=O)N[C@H](C(=O)N[C@@H](Cc1ccccc1)C(=O)N[C@@H](CCCCN)C(=O)N[C@@H](Cc1ccccc1)C(=O)N[C@@H](CCCCN)C(=O)N[C@@H](Cc1ccccc1)C(=O)N[C@@H](CCCCN)C(N)=O)C(C)C [KKVVFKFKFK]
MIC [18]: ≥ 77 µM
MIC [19]: 2.4 µM (≈ 3.12 µg/mL)
MIC [4]: 2.4 µM (≈ 3.12 µg/mL)
MIC [20]: 4.81 µM (≈ 6.25 µg/mL)
MIC [21]: 0.601 µM (≈ 0.779 µg/mL)
MIC [22]: 2.4 µM (≈ 3.12 µg/mL)
MIC [23]: 2.4 µM (≈ 3.12 µg/mL)
MIC [24]: 0.601 µM (≈ 0.779 µg/mL)
MIC [2]: 0.601 µM (≈ 0.779 µg/mL)

Further lines, with some results ahead:

MIC [25]: 3.81 µM (≈ 6 µg/mL)
MIC [26]: 3.81 µM (≈ 6 µg/mL)
MIC [28]: 7.63 µM (≈ 12 µg/mL)
Compound: CC(C)C[C@H](NC(=O)[C@H](CCCCN)NC(=O)[C@H](CC(C)C)NC(=O)[C@H](CCCCN)NC(=O)[C@H](CS)NC(=O)[C@H](CC(C)C)NC(=O)[C@H](Cc1c[nH]c2ccccc12)NC(=O)CNC(=O)[C@H](CCCCN)NC(=O)[C@H](CS)NC(=O)[C@@H]1CCCN1C(=O)[C@@H](N)CCCCN)C(=O)N[C@@H](CCCN=C(N)N)C(=O)O [KPCKGWLCKLKLR]
MIC [27]: 1.91 µM (≈ 3 µg/mL)

MIC [29]: 25 µM (≈ 40.9 µg/mL)
MIC [30]: 25 µM (≈ 40.9 µg/mL)
MIC [31]: 25 µM (≈ 40.9 µg/mL)
Compound: CC(C)C[C@H](NC(=O)[C@@H]1CCCN1C(=O)[C@H](CCCN=C(N)N)NC(=O)[C@H](CCCN=C(N)N)NC(=O)[C@H](CS)NC(=O)[C@H](CCC(N)=O)NC(=O)[C@@H](N)CCC(N)=O)C(=O)N[C@@H](Cc1ccc(O)cc1)C(=O)N[C@@H](CS)C(=O)N[C@@H](CCCN=C(N)N)C(=O)N[C@@H](CCCN=C(N)N)C(=O)N[C@@H](CCCN=C(N)N)C(=O)O [QQCRRPLYCRRR]

MIC [32]: ≥ 40 µM
MIC [3]: 3.2 µM (≈ 4.65 µg/mL)
MIC [33]: ≥ 40 µM
MIC [5]: 13 µM (≈ 18.9 µg/mL)
MIC [34]: 13 µM (≈ 18.9 µg/mL)
MIC [23]: 3.2 µM (≈ 4.65 µg/mL)
Compound: CSCC[C@H](NC(=O)[C@H](CCC(N)=O)NC(=O)[C@H](CO)NC(=O)CNC(=O)[C@H](CCCCN)NC(=O)[C@@H](N)CCCN=C(N)N)C(=O)NCC(=O)N[C@@H](CCCCN)C(=O)N[C@@H](CCCCN)C(=O)N[C@@H](CS)C(=O)N[C@@H](CCC(=O)O)C(=O)N[C@@H](CS)C(=O)N1CCC[C@H]1C(=O)O [RKGSQMGKKCECP]

MIC [35]: 3.12 µM (≈ 6.25 µg/mL)
MIC [36]: 12.5 µM (≈ 25 µg/mL)
MIC [37]: 3.12 µM (≈ 6.25 µg/mL)
Compound: CC(C)C[C@H](NC(=O)[C@H](CO)NC(=O)[C@H](CO)NC(=O)[C@H](CCCN=C(N)N)NC(=O)[C@H](CCCN=C(N)N)NC(=O)[C@H](CCCN=C(N)N)NC(=O)[C@H](CO)NC(=O)[C@H](CC(C)C)NC(=O)[C@H](Cc1c[nH]c2ccccc12)NC(=O)[C@@H](N)Cc1c[nH]c2ccccc12)C(=O)N[C@@H](Cc1ccccc1)C(=O)N[C@@H](Cc1ccc(O)cc1)C(=O)N[C@@H](Cc1c[nH]c2ccccc12)C(=O)N[C@@H](CCCN=C(N)N)C(=O)O [WWLSRRRSSLFYWR]
